# In patent publication US20020127287A1, “Treatment of lyso paf-mediated disorders with lyso paf or paf antagonists and procedure for determining their efficacy” (priority 1990, published 2002):
# Where “and” joins values, the source holds several entries; their conditions need not be identical. Equal entries are not always repeated. Marks after values point to notes of the source that are not given here.
# How the values were obtained:
# [1] = target: T1, paf receptors on neutrophils (PMN) (Homo sapiens, UniProt P25105); assay: [^3H]paf binding to intact human neutrophils (PMN)
# T1 construct: Neutrophils (PMN) were prepared from venous blood (40 ml) from normal donors; endogenous in cells; host or cells: intact neutrophils (PMN) from venous blood of normal donors
# Method: (§2) Neutrophils (PMN) were prepared from venous blood (40 ml) from normal donors, anticoagulated with citric acid dextrose (7:1, v/v) was sedimented for 30 to 45 min in gelatin 0.3% final (Plasmagel®). Twenty ml of supernatant were layered on 10 ml Ficoll Hypaque (d=1.077) and centrifuged (400×g, 20 min, 20° C.). The cell pellet containing PMN (95%) was resuspended in 500 μl Tyrode's buffer (pH=7.4). Erythrocyte lysis was performed by adding 3 volumes of distilled water for 40 sec. followed by 1 volume NaCl (3.5%, w/v). PMN were then washed twice in Tyrode's buffer (centrifugation at 370×g at 20° C. for 10 min). Cell concentration was adjusted to 5×10^7 per ml.
# (§3) Binding studies were performed using, for example, intact neutrophils (PMN) or intact human blood eosinophils. PMN (2.5×10^6) or eosinophils (2.5×10^5) were suspended in 500 μl Tyrode's buffer supplemented with 1.3 mM CaCl2, 1 mM MgCl2 and 0.25% (v/v) fatty acid-free bovine serum albumin (BSA, w/v) were incubated with [^3H]paf (0.325-6.5 nM) either for 30 min at 20° C. or for 20 hrs at 4° C. Non-specific binding was assessed with the unlabeled ligands either paf (500 nM) or the receptor antagonist WEB 2086 (1 μM or 400 nM).
# In a second set of experiments, [^3H]paf binding was performed by adding 3.25 nM [^3H]paf to PMN, simultaneously with low dose (5 to 50 nM) of paf, lyso paf, the enantiomer of paf or 2-lyso phosphatidylcholine (LPC) for 30 min at 20° C. [^3H]paf binding was also measured in the presence of the phorbol ester 4-phorbol-12-myristate-13-acetate (PMA, 1 to 16 nM) either added simultaneously with [^3H]paf or preincubated 15 min at 37° C. previously. […] After the binding procedure, cells were separated from their suspending medium by filtration in a millipore vacuum system with GF/C filters. Filters were washed with 10 ml Tyrode's buffer at 4° C. and radioactivity was assessed by scintillation. Cell-bound radioactivity on the filters after subtraction of blanks (filter-bound radioactivity in the absence of cells) was expressed in fmol [^3H]paf bound per 2.5×10^6 PMN or 2.5×10^5 eosinophils.
# [2] = target: T2, paf receptors on eosinophils (Homo sapiens, UniProt P25105); assay: [^3H]paf binding to intact human eosinophils
# T2 construct: endogenous in cells; host or cells: intact human blood eosinophils (about 96% pure)
# Method: Eosinophils were also prepared under sterile conditions. Blood (400 ml) was mixed with 10% (v/v) dextran. The supernatant was carefully deposited on a metrizoate/ficoll suspension (d=1.148) after sedimentation of red blood cells and centrifuged (400×g: 40 min). Erythrocyte lysis was performed by adding 3 v. of distilled water for 40 sec, followed by 1 v. NaCl (3.5%, w/v). Cells were suspended in 500 μl pH 7.4 Tyrode's buffer, centrifuged (1900 rpm×10 min) and resuspended (5×10^6 cells/ml) in Tyrode's (0.25% BSA) without Ca^2+. The eosinophils fraction at 1×10^6 cells/ml contained 96±5% eosinophils, 3±3% neutrophils, 1±2% mononuclear cells and no free platelets (mean±s.d., n=3).
# as §3
# Eosinophils were added to Tyrode's (0.25% BSA, 1.3 mM CaCl2, 1 mM MgCl2) containing [3H]paf (0.325-6.5 nM) in the absence or presence of unlabeled paf, lyso paf, enantio-paf or lyso-phosphatidylcholine (LPC) (5, 10, 50, 500 nM) and/or the specific paf receptor antagonist WEB 2086 (400 nM). After the binding procedure, cells were separated from their suspending medium by filtration in a millipore vacuum system with GF/C filters. Filters were washed with 10 ml Tyrode's buffer at 4° C. and radioactivity was assessed by scintillation. Cell-bound radioactivity on the filters after subtraction of blanks (filter-bound radioactivity in the absence of cells) was expressed in fmol [^3H]paf bound per 2.5×10^6 PMN or 2.5×10^5 eosinophils.
# endothelial cell = assay: [^3H]paf binding to endothelial cells
# acetylhydrolase = acetylhydrolase activity, kinetic constants; format: biochemical, human; details: excess AAGPC
# Method: Acetylhydrolase activity was measured in lysates of resting platelets or platelets stimulated with thrombin (0.5 IU/ml, 1 min, 37° C.), in supernatants of thrombin-activated platelets with or without acid-treated (inactivation of acetylhydrolase) plasma and in native plasma. Samples were incubated for 10 min at 37° C. in the presence of 0.1 μCi [^3H]acetyl paf and concentrations of unlabeled paf varying from 5 to 35 μM. The microenvironment modulates the acetylhydrolase indicating the origin of plasma acetylhydrolase from activated platelets.
# [3] = system: endothelial cell prostacyclin release; assay: endothelial cell prostacyclin release (6-keto-PGF1-alpha); format: cell-based
# U 937 cells = assay: cAMP levels of U 937 cells; format: cell-based; details: cholesterol 60 μg/ml, 24 hrs
# Method: U 937 cells were grown in stationary suspension culture in RPMI 1640 containing 10% fetal calf serum (FCS) and 2 mM L-glutamine at 37° C. in a humidified atmosphere of 5% CO2 and 95% air. The cells were diluted with fresh medium (1/10, v/v) twice a week. After three days in culture, U 937 cells were centrifuged (1000×G for 10 min) and incubated for 24 hrs in RPMI 1640 medium containing 10% CPSR 1 (delipidated FCS) and 2 mM L-glutamine. Subsequently the cells were incubated in the delipidated FCS medium containing cholesterol (10-60 μg/ml), as compared with solvent alone (ethanol, 0.5% v/v, final concentration) for (2, 4 or 24 hrs).
# Cyclic AMP in supernatants from cholesterol-treated and control cells, were measured by the Rianen [^125I]cAMP-RIA Kit. Briefly, cholesterol (60 μg/ml, 24 hrs) or cholesterol vehicle (ethanol) were added after 24 hrs cell incubation in delipidated FCS medium. Cells were subsequently washed three times and resuspended (5×10^6, final concentration) in Hanks Hepes (HH)-buffer, pH 7.4 with ascorbinic acid (10 mM) and cAMP-phosphodiesterase inhibitor IBMX (1 mM). Cell suspension (100 μl) was added to 400 μl of the cAMP buffer for 30 min at 20° C. […] Values are from one experiment (representative of three) expressed as pmol cAMP per 10^6 cells. Total proteins were measured by standard procedure.
# [4] = system: lyso paf receptors on neutrophils (PMN); assay: [^3H]lyso paf binding to neutrophils (PMN); design: species or system human; details: for effect of unlabeled ligand on [^3H]lyso paf binding: excess unlabeled paf or lyso paf 500 nM, WEB 2086 1 μM, 20° C.
# Method: as §2
# The binding of [^3H]lyso paf (0.325-0.5 nM) was measured after 30 min incubation at 20° C. in the absence or presence of an excess of unlabeled lyso paf (500 nM), paf (500 nM) or WEB 2086 (1 μM). The effect of low dose paf (5 nM) on the binding of [^3H]lyso paf was also investigated. […] After the binding procedure, cells were separated from their suspending medium by filtration in a millipore vacuum system with GF/C filters. Filters were washed with 10 ml Tyrode's buffer at 4° C. and radioactivity was assessed by scintillation. Cell-bound radioactivity on the filters after subtraction of blanks (filter-bound radioactivity in the absence of cells) was expressed in fmol [^3H]paf bound per 2.5×10^6 PMN or 2.5×10^5 eosinophils.
# PMN = assay: cytosolic free calcium (fura-2) in PMN; format: cell-based, human
# Method: (§1) The concentration of cytosolic free calcium [Ca^2+]i was measured using the [Ca^2+]i indicator fura-2-acetoxymethyl ester (fura-2). […] The spectrofluorophotometer was programmed to shuttle between the two excitation wavelengths of 340 and 380 nm every 5 sec while keeping the emission wavelength of 505 nm. […] Background values were subtracted from all data. The intracellular Ca^2+ was calculated with the formula [[…] is KD of the fura-2 multiplied with the quotient of the fluorescence at 380 nm from the minimal and the maximal [Ca^2+]i fluorescence.
# eosinophils = assay: cytosolic free calcium (fura-2) in eosinophils; format: cell-based, human; details: EGTA 2 mM
# Method: as §1
# human platelets = assay: acetylhydrolase release from activated platelets; format: cell-based; details: Thrombin 0.5 IU/ml; for acetylhydrolase release: Paf 500 nM
# Method: Results are expressed as mean±S.D. or S.E. and statistics were performed using the “Mann Whitney” test (n=3, n=5 or n=6 as indicated).
# [5] = Add. 5 nM, [^3H]paf […], 20° C., 30 min, WEB 2086 1 μM
# T2 sequence (P25105 whole entry): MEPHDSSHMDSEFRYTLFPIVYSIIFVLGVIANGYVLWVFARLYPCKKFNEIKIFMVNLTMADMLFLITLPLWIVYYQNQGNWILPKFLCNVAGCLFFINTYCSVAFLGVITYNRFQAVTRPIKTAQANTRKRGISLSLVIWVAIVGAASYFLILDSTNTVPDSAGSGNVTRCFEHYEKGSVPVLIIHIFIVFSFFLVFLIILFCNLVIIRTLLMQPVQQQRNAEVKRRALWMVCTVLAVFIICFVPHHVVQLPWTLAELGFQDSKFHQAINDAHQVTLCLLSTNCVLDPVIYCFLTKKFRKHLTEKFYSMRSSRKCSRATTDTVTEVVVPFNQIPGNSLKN
# T1 sequence (P25105 whole entry): as above
molecule,measurement,setting,value
2-lyso phosphocholine [LPC],[^3H]paf binding,[1]; [5],322 ± 22 fmol [^3H]paf bound per 2.5×10^6 PMN
same,interference with [3H]paf binding,[2],did not interfere
"CCCCCCCCCCCCCCCCCCNC(=O)OCC(COP(=O)([O-])OCC[n+]1ccsc1)OC (racemic) [CV 3988, rac-3-(N-n-octadecylcarbamoyloxy)-2-methoxypropyl 2-tiazolioethyl phosphate]",increased phospholipid binding (lysine aspirin) antagonized,endothelial cell,antagonized
"CCCCCCCCCCCCCCCCOCC(COP(=O)([O-])OCC[N+](C)(C)C)OC(=O)CCCCCCCCCCCCCCC (stereo not shown) [AAGPC, 1-O-hexadecyl-2-palmitoyl-GPC]",inhibition of acetylhydrolase activity,acetylhydrolase,not inhibited
COc1ccc(SCC(=S)N2CCc3c(sc4c3C(c3ccccc3Cl)=NCc3nnc(C)n3-4)C2)cc1OC [BN 50 739],inhibited endothelial cell bound [^3H]paf,endothelial cell; 20 μM,5.8 fmol
CC1C(=O)OC2C(O)C34C5CC(C(C)(C)C)C36C(OC(=O)C6O)OC4(C(=O)O5)C12O (stereo not shown) [BU 52021],endothelial cell prostacyclin release,"[3]; 10 μM, increased from 50±2",126±10 pg per ml
"CC(C)CCC[C@@H](C)[C@H]1CC[C@H]2[C@@H]3CC=C4C[C@@H](O)CC[C@]4(C)[C@H]3CC[C@]12C [Cholesterol, cholesterol]",release of cAMP levels,U 937 cells,increased
CC(=O)Oc1ccccc1C(=O)O.NCCCCC(N)C(=O)O [Lysine aspirin],"endothelial cell bound [^3H]paf, % of the total binding",endothelial cell,177% and 198%
"CCCCCCCCCCCCCC(=O)O[C@@H]1[C@@H](C)[C@@]2(O)[C@@H](C=C(CO)C[C@]3(O)C(=O)C(C)=C[C@@H]23)[C@@H]2C(C)(C)[C@]12OC(C)=O [PMA, phorbol-12-myristate-13-acetate]",[^3H]paf binding,"[1]; PMA 1 nM, preincubation 0 min at 37° C.",385 fmol [^3H]paf bound per 2.5×10^6 PMN
same,[^3H]paf binding,"[1]; PMA 1 nM, preincubation 15 min at 37° C.",413 fmol [^3H]paf bound per 2.5×10^6 PMN
same,[^3H]paf binding,"[1]; PMA 16 nM, preincubation 0 min at 37° C.",219 fmol [^3H]paf bound per 2.5×10^6 PMN
same,[^3H]paf binding,"[1]; PMA 16 nM, preincubation 15 min at 37° C.",171 fmol [^3H]paf bound per 2.5×10^6 PMN
"Cc1nnc2n1-c1sc(CCC(=O)N3CCOCC3)cc1C(c1ccccc1Cl)=NC2 [WEB 2086, 3-(4-(2-chlorophenyl)-9-methyl-6H-thieno(3,2-f) (1,2,4)triazolo-(4,3-a)-(1,4)diazepine-2-yl)-1-(4-morpholinyl)-1-propanone]",increased phospholipid binding (lysine aspirin) antagonized,endothelial cell,antagonized
same,6-keto-PGF1-alpha,"[3]; 100 nM WEB 2086, increased from 127±3",145±11 pg per ml
same,effect of excess unlabeled ligand on [^3H]paf binding,"[1]; paf 500 nM, WEB 2086 1 μM",inhibited
same,effect of unlabeled ligand on [^3H]lyso paf binding,[4],inefficient
same,binding of […] [^3H]lyso paf,[4]; paf 5 nM with WEB 2086 1 μM,212.0±6.4 fmol/2.5×10^6 PMN
same,"specific [^3H]paf binding, plateau values","[2]; 20° C., 30 min, WEB 2086 400 nM, 3 experiments",25.8 ± 8.1 fmol
same,specific [^3H]paf binding,"[2]; 20° C., 30 min, WEB 2086 400 nM, 3 other experiments, no inhibitory effect",4.3 ± 3.3 fmol
same,"specific [^3H]paf binding, maximal plateau values","[2]; 20 hrs at 4° C., assessed with unlabeled paf 500 nM or WEB 2086 400 nM",14.8±5.1 fmol per 2.5×10^5 cells
same,specific [^3H]paf binding,"[2]; addition 0 nM, WEB 2086 400 nM, 20° C., 30 min",15.1 ± 8.0^1) fmol per 2.5×10^5 cells
same,effect on paf-induced Ca^2+ flux,"PMN; WEB 2086 1 μM, 3 min preincubation",shifted to the right the paf dose-response curve
same,effect on paf-mediated [Ca^2+]i rise,eosinophils,competitively inhibited
CCCCCCCCCCCCCCCCCCOC[C@H](COP(=O)([O-])OCC[N+](C)(C)C)OC(C)=O [[^3H]paf] [1-O-[^3H]-octadecyl-2-acetyl-sn-glycero-3-phosphocholine],Kd,[1]; 4° C.,0.44 nM
same,total binding of [^3H]paf,[1]; 4° C.,157.0±27.4 fmol per 2.5×10^6 cells
same,total binding of [^3H]paf,[1]; 20° C.,310.5±13.0 fmol per 2.5×10^6 cells
same,binding sites per eosinophil,[2],85×10^3 sites per eosinophil
same,Bmax,[2]; 20 hrs at 4° C.,35.4 fmol per 2.5×10^5 cells
same,Kd,"[2]; 20 hrs at 4° C., read-out: binding affinity (Kd) on eosinophils",5.5 nM
"CCCCCCCCCCCCCCCCCCOC[C@@H](O)COP(=O)([O-])OCC[N+](C)(C)C [lyso paf, 1-octadecyl-sn-glycero-3-phosphocholine]",[^3H]paf binding,[1]; [5],354 ± 20 fmol [^3H]paf bound per 2.5×10^6 PMN
same,[^3H]paf binding,"[1]; Add. 10 nM, [^3H]paf […], 20° C., 30 min, WEB 2086 1 μM",243 ± 16 fmol [^3H]paf bound per 2.5×10^6 PMN
same,[^3H]paf binding,"[1]; Add. 50 nM, [^3H]paf […], 20° C., 30 min, WEB 2086 1 μM",240 ± 18 fmol [^3H]paf bound per 2.5×10^6 PMN
same,effect of unlabeled ligand on [^3H]lyso paf binding,[4],inhibited
same,interference with [3H]paf binding,[2],did not interfere
same,specific [^3H]paf binding,"[2]; addition 5 nM, WEB 2086 400 nM, 20° C., 30 min",1.5 ± 1.7 fmol per 2.5×10^5 cells
same,specific [^3H]paf binding,"[2]; addition 10 nM, WEB 2086 400 nM, 20° C., 30 min",1.2 ± 1.6 fmol per 2.5×10^5 cells
same,specific [^3H]paf binding,"[2]; addition 50 nM, WEB 2086 400 nM, 20° C., 30 min",4.4 ± 3.7 fmol per 2.5×10^5 cells
same,cytoplasmic Ca^2+ flux in response to agonist,"PMN; 1 to 500 nM, CaCl2 1.3 mM or EGTA 2 mM",induced neither [Ca^2+]i entry nor mobilization
Thrombin,released of the total acetylhydrolase,"human platelets; paf 500 nM, mean±S.E., n=3",17.2±3.1%
same,acetylhydrolase release,human platelets; stimulation 0 sec,2.2 ± 0.9 percentage of the total content of acetylhydrolase
same,acetylhydrolase release,human platelets; stimulation 15 sec,8.5 ± 0.7 percentage of the total content of acetylhydrolase
same,acetylhydrolase release,human platelets; stimulation 30 sec,13.1 ± 3.9 percentage of the total content of acetylhydrolase
same,acetylhydrolase release,human platelets; stimulation 60 sec,12.8 ± 5.1 percentage of the total content of acetylhydrolase
same,acetylhydrolase release,human platelets; stimulation 120 sec,10.9 ± 3.1 percentage of the total content of acetylhydrolase
same,acetylhydrolase release,human platelets; stimulation 180 sec,17.9 ± 2.6 percentage of the total content of acetylhydrolase
same,acetylhydrolase release,human platelets; stimulation 300 sec,17.2 ± 3.1 percentage of the total content of acetylhydrolase
